Source: patent US20250034116A1, “1,4-DIHETEROCYCLIC SUBSTITUTED AROMATIC RING OR AROMATIC HETEROCYCLIC COMPOUND AND USE THEREOF” (BeBetter Med Inc., priority 2022, published 2025)

Key:
[1] = system: CYP enzymes in human liver microsomes (HLM); assay: Inhibition of 20-HETE production in human liver microsomes (HLM); assay type: biochemical
Protocol: (§1) Experimental principle: The inhibitory activity of 20-HETE production is evaluated by testing the inhibitory effects of the compound on human liver microsomes (HLM), rat liver microsomes (RLM), mouse liver microsomes (MLM), or […] CYP4 subtype enzymes (CYP4F2). This assay employs HLM, RLM, or MLM along with recombinant CYP4F2 (rCYP4F2) and recombinant CYP4A11 (rCYP4A11), which are […] CYP4 subtype enzymes, to detect the effects of the test compound at different concentrations on the metabolic rate of enzyme-specific substrates, to determine the inhibitory effects of the test compound on CYP enzymes in HLM, RLM, or MLM.
(§2) Experimental methods: Dissolve the test compound in DMSO, and subsequently dilute it with an acetonitrile and DMSO mixture (3:1). Add 2 μl of varying concentrations of the test compound and 100 μl of potassium phosphate buffer containing either liver microsomes or recombinant enzymes to a 96-well plate. After mixing well, transfer 30 μl to another well (in duplicate), add 15 μl of 400 μM substrate solution, and mix well again. Preheat at 37° C. for 10 minutes, and then add 15 μl of 6 mM NADPH and incubate at 37° C. for 25 minutes. After 25 minutes, add 160 μl of acetonitrile solution (containing 0.1 μg/ml internal standard) to stop the reaction. Mix well, centrifuge at 3500 g for 15 minutes, and then analyze the supernatant using LC-MS/MS.
(§3) Plot the compound concentration on the x-axis and the inhibition rate on the y-axis to draw the curve. Use GraphPad Prism 5 software to fit the curve and calculate the IC50. The formula is Y=Bottom+(Top−Bottom)/(1+10^((Log IC50−X)×HillSlope)). X represents the logarithmic concentration of the inhibitor, and Y represents the relative enzyme activity at a given inhibitor concentration (relative to the condition without the inhibitor).
(§4) Calculate the inhibition percentages at concentrations of 1000 nM, 500 nM, or 100 nM as well as the half-maximal inhibitory concentration (IC50) of the test compound from the above experiment.

[2] = system: CYP enzymes in rat liver microsomes (RLM); assay: Inhibition of 20-HETE production in rat liver microsomes (RLM); assay type: biochemical
Protocol: as §1, §2, §3, §4

RLM (% inh @ 500 nM) [2] [%]	HLM (% inh @ 500 nM) [1] [%]	Compound	also measured
71.58	70.73	CCCCCC1CCC(C(=O)N2CCC(c3ccc(-c4cn[nH]c4)c(F)c3F)CC2)CC1 (stereo not shown) [Compound 112, (4-(2,3-difluoro-4-(1H-pyrazol-4-yl)phenyl)piperidin-1-yl)((1s,4r)-4-pentylcyclohexyl) methanone]	–
–	−24.84	O=C1CCCN1CC1CCN(c2ncc(-c3cn[nH]c3)cn2)CC1 [Compound 23, 1-((1-(5-(1H-pyrazol-4-yl)pyrimidin-2-yl)piperidin-4-yl)methyl)pyrrolidine-2-one]	–
73.19	78.18	C[C@@H]1CN(C(=O)N2CCCC2)CCN1c1ccc(-c2cn[nH]c2)c(F)c1F [Compound 104, (R)-(4-(2,3-difluoro-4-(1H-pyrazol-4-yl)phenyl)-3-methylpiperazin-1-yl)(pyrrolidin-1-yl) methanone]	–
68.94	78.05	O=C(N1CCCCC1)N1CCN(c2ccc(-c3cn[nH]c3)c(F)c2F)CC1 [Compound 88, (4-(2,3-difluoro-4-(1H-pyrazol-4-yl)phenyl)piperazin-1-yl)(piperidin-1-yl) methanone]	–
–	40.01	O=C1CCCN1CC1CCN(c2ccc(-c3cn[nH]c3)cn2)CC1 [Compound 21, 1-((1-(5-(1H-pyrazol-4-yl)pyridin-2-yl)piperidin-4-yl)methyl)pyrrolidin-2-one]	–
69.34	78.37	O=C(C1CCC(F)(F)CC1)N1CCC(c2ccc(-c3cn[nH]c3)c(F)c2F)CC1 [Compound 101, (4-(2,3-difluoro-4-(1H-pyrazol-4-yl)phenyl)piperidin-1-yl)(4,4-difluorocyclohexyl) methanone]	–
76.10	84.23	C[C@H]1CN(C(=O)N2CCCC2)CCN1c1ccc(-c2cn[nH]c2)c(F)c1F [Compound 102, (S)-(4-(2,3-difluoro-4-(1H-pyrazol-4-yl)phenyl)-3-methylpiperazin-1-yl)(pyrrolidin-1-yl) methanone]	–
–	41.24	COc1cc(-c2cn[nH]c2)ccc1N1CCC(CN2CCCC2=O)CC1 [Compound 14, 1-((1-(2-methoxy-4-(1H-pyrazol-4-yl)phenyl)piperidin-4-yl)methyl)pyrrolidin-2-one]	–

The next lines start with the compound.

Compound	RLM (% inh @ 500 nM) [2] [%]	HLM (% inh @ 500 nM) [1] [%]	also measured
O=C(NCC1CCN(c2ccc(-c3cn[nH]c3)cc2)CC1)C1CCCC1 [Compound 46, N-((1-(4-(1H-pyrazol-4-yl)phenyl)piperidin-4-yl)methyl)cyclopentanecarboxamide]	35.54	–	IC50 [1]: 43.2 nM; IC50 [2]: 942 nM
O=C1N(CC2CCN(c3ccc(-c4cn[nH]c4)cc3)CC2)CCC12CCCCC2 [Compound 31, 2-((1-(4-(1H-pyrazol-4-yl)phenyl)piperidin-4-yl)methyl)-2-azaspiro[4.5]decan-1-one]	14.73	68.02	–
O=C(C1CCN(c2ccc(-c3cn[nH]c3)cc2)CC1)N1Cc2cccnc2C1 [Compound 157, (1-(4-(1H-pyrazol-4-yl)phenyl)piperidin-4-yl)(5,7-dihydro-6H-pyrrolo[3,4-b]pyridin-6-yl) methanone]	–	–	IC50 [1]: 17.6 nM
N#Cc1ccc2c(c1)CN(C(=O)C1CCN(c3ccc(-c4cn[nH]c4)cc3)CC1)C2 [Compound 158, 2-(1-(4-(1H-pyrazol-4-yl)phenyl)piperidine-4-carbonyl) isoindoline-5-carbonitrile]	–	–	IC50 [1]: 11.7 nM
O=C1CCCN1CC1CCN(c2ccc(-c3cnoc3)c(F)c2F)CC1 [Compound 37, 1-((1-(2,3-difluoro-4-(isoxazol-4-yl)phenyl)piperidin-4-yl)methyl)pyrrolidin-2-one]	59.01	82.89	–
O=C(Cc1ccccc1)N1CCC(c2ccc(-c3cn[nH]c3)c(F)c2F)CC1 [Compound 111, 1-(4-(2,3-difluoro-4-(1H-pyrazol-4-yl)phenyl)piperidin-1-yl)-2-phenylethan-1-one]	84.99	82.17	–
O=C1C2CCC(C2)N1CC1CCN(c2ccc(-c3cn[nH]c3)cc2)CC1 (stereo not shown) [Compound 33, 2-((1-(4-(1H-pyrazol-4-yl)phenyl)piperidin-4-yl)methyl)-2-azabicyclo[2.2.1]heptan-3-one]	8.80	61.47	–
O=C(N1CCC(c2ccc(-c3cn[nH]c3)cc2)CC1)C1(O)CCCCC1 [Compound 139, (4-(4-(1H-pyrazol-4-yl)phenyl)piperidin-1-yl)(1-hydroxycyclohexyl) methanone]	–	–	HLM (% inh @ 100 nM) [1]: 88.13%
O=C(C1CCN(c2ccc(-c3cn[nH]c3)cc2)CC1)N1CCOCC1 [Compound 50, (1-(4-(1H-pyrazol-4-yl)phenyl)piperidin-4-yl)(morpholinyl) methanone]	14.48	57.59	–
Cc1cc(-c2cn[nH]c2)ccc1N1CCC(CN2CCCC2=O)CC1 [Compound 12, 1-((1-(2-methyl-4-(1H-pyrazol-4-yl)phenyl)piperidin-4-yl)methyl)pyrrolidin-2-one]	17.99	76.91	–
O=C(Nc1ccc(F)cc1)C1CCN(c2ccc(-c3cn[nH]c3)cc2)CC1 [Compound 61, 1-(4-(1H-pyrazol-4-yl)phenyl)-N-(4-fluorophenyl)piperidine-4-carboxamide]	–	85.27	IC50 [1]: 17.6 nM; IC50 [2]: 60.5 nM
O=C1C2CCCC2CN1CC1CCN(c2ccc(-c3cn[nH]c3)cc2F)CC1 (stereo not shown) [Compound 160, 2-((1-(2-fluoro-4-(1H-pyrazol-4-yl)phenyl)piperidin-4-yl)methyl) hexahydrocyclopenta[c]pyrrol-1(2H)-one]	–	–	IC50 [1]: 23.2 nM
O=C(C1CCN(c2ccc(-c3cn[nH]c3)cc2)CC1)N1CC2(CCC2)C1 [Compound 67, (1-(4-(1H-pyrazol-4-yl)phenyl)piperidin-4-yl)(2-azaspiro[3.3]heptane-2-yl) methanone]	30.84	55.57	–
O=Cc1cc(-c2cn[nH]c2)ccc1N1CCC(CN2CCCC2=O)CC1 [Compound 15, 2-(4-((2-oxopyrrolidin-1-yl)methyl)piperidin-1-yl)-5-(1H-pyrazol-4-yl)benzaldehyde]	12.62	64.22	–
O=S(=O)(c1ccc(F)cc1)N1CCN(c2ccc(-c3cn[nH]c3)cc2F)CC1 [Compound 134, 1-(2-fluoro-4-(1H-pyrazol-4-yl)phenyl)-4-((4-fluorophenyl)sulfonyl)piperazine]	–	–	IC50 [1]: 21.9 nM
O=C(C1CCCCC1O)N1CCC(c2ccc(-c3cn[nH]c3)cc2F)CC1 (single isomer, unassigned) [Compound 149a, (4-(2-fluoro-4-(1H-pyrazol-4-yl)phenyl)piperidin-1-yl)(2-hydroxycyclohexyl) methanone]	–	–	HLM (% inh @ 100 nM) [1]: 84.74%
O=C(C1CCN(c2ccc(-c3cn[nH]c3)cc2)CC1)N1CCNCC1 [Compound 51, (1-(4-(1H-pyrazol-4-yl)phenyl)piperidin-4-yl)(piperazin-1-yl) methanone]	–	30.17	–
O=C(N1CCN(c2ccc(-c3cn[nH]c3)cc2F)CC1)N1CC2CCCC2C1 (stereo not shown) [Compound 133, (4-(2-fluoro-4-(1H-pyrazol-4-yl)phenyl)piperazin-1-yl)(hexahydrocyclopenta[c]pyrrol-2 (1H)-yl) methanone]	–	–	HLM (% inh @ 100 nM) [1]: 87.90%
O=C1CCCN1Cc1ccc2c(c1)CN(c1ccc(-c3cn[nH]c3)cc1)C2 [Compound 126, 1-(2-(4-(1H-pyrazol-4-yl)phenyl)isoindolin-5-ylmethyl)pyrrolidin-2-one]	–	64.15	–
O=C(C1CCN(c2ccc(-c3cn[nH]c3)cc2F)CC1)N1Cc2ccccc2C1 [Compound 156, (1-(2-fluoro-4-(1H-pyrazol-4-yl)phenyl)piperidin-4-yl)(isoindolin-2-yl) methanone]	–	–	IC50 [1]: 26.2 nM
CN(C)c1cc(-c2cn[nH]c2)ccc1N1CCC(CN2CCCC2=O)CC1 [Compound 20, 1-((1-(2-(dimethylamino)-4-(1H-pyrazol-4-yl)phenyl)piperidin-4-yl)methyl)pyrrolidin-2-one]	–	36.16	–
O=C(C1CCCC(O)C1)N1CCC(c2ccc(-c3cn[nH]c3)cc2F)CC1 (stereo not shown) [Compound 148, (4-(2-fluoro-4-(1H-pyrazol-4-yl)phenyl)piperidin-1-yl)(3-hydroxycyclohexyl) methanone]	–	–	HLM (% inh @ 100 nM) [1]: 85.60%
CC(C)(O)CC(=O)N1CCC(c2ccc(-c3cn[nH]c3)cc2F)CC1 [Compound 151, 1-(4-(2-fluoro-4-(1H-pyrazol-4-yl)phenyl)piperidin-1-yl)-3-hydroxy-3-methylbutan-1-one]	–	–	HLM (% inh @ 100 nM) [1]: 82.28%
NC(=O)c1cc(-c2cn[nH]c2)ccc1N1CCC(CN2CCCC2=O)CC1 [Compound 16, 2-(4-((2-oxopyrrolidin-1-yl)methyl)piperidin-1-yl)-5-(1H-pyrazol-4-yl)benzamide]	–	41.22	–
